Data set [1] has as its system human pDCs. Put plainly: Intracellular IL-10, TGF-β1 and IDO expression in CCR6+CD123+ human pDCs by FACS. The data set is classed as cell-based. As to conditions: 24 hrs, FIG. 2A. The text has this: To evaluate intracellular IL-10, TGFβ 1 and IDO expression in human pDCs, the cells were first stained with PECY-7-labeled anti-human CCR6 mAb (BD Biosciences), PerCP-Cy5.5 labeled anti-human CD123 mAb (BD Biosciences). Stained cells were then fixed and permeabilized using a Cytofix/Cytoperm kit (BD Biosciences) according to the manufacturer's instructions and stained with PE-labeled anti-human IDO (Biolegend), APC-labeled anti-human IL-10 mAb and FITC-labeled anti-human TGF-β1 (BD Biosciences), or isotype-matched control mAbs. The stained cells were acquired by FACSCanto using the FACSDiva software. FACS analysis was performed using FlowJo software. Single, viable cells in the CCR6+CD123+ pDC gates were analyzed. The flow cytometric results are expressed as the percentage and MFI of IL-10-, TGF-β1- or IDO-expressing cells in each gate. Results are expressed as the mean±SEM of cells quantified.
IL10 was alternatively measured in cellular supernatants by ELISA using standard protocols.
Background: Flow cytometry measures light scatter and fluorescence of single cells or particles in a stream.

Data set [2] deals with human pDCs. Put plainly: Surface ICOS-L and PD-L1 expression in CCR6+CD123+ human pDCs by FACS. The data set is classed as cell-based. As to conditions: human pDCs, 24 hrs, FIG. 2B. On the procedure: To evaluate surface ICOS-L, PD-L1 expression in the CCR6+CD123+ pDC cell subsets, PBMCs were incubated on ice in the presence of Fc-Block (BD Pharmingen) for 20 minutes, washed, and incubated with antibodies specific for surface molecules or isotype-matched control mAbs. APC-labeled anti-human ICOS-L mAb were purchased from BioLegend, PECY-7-labeled anti-human CCR6 mAb, FITC-labeled anti-human PD-L1 mAb and PerCP-Cy5.5 labeled anti-human CD123 mAb were purchased from BD Biosciences. The stained cells were then subjected to FACS (FACSCanto, BD Biosciences) using FACSDiva software. FACS analysis was performed using FlowJo software. Single, viable cells in the CCR6+CD123+ pDC gates were analyzed. The flow cytometric results are expressed as the percentage and MFI of ICOSL-, or PD-L1-expressing cells in each gate.
pDCs were isolated and ICOS-L expression was analyzed as described in Example 2.

The test system of the next data set is human PBMCs. Put plainly: Cytokine production by human PBMCs treated with ODNs, MagPix Multi-Plex. Set-up: key to IL-6, IL-12: (↑) indicates a weak but detectable activity; (↑↑) and (↑↑↑) indicate different levels of moderate activities; (↑↑) and (↑↑↑) indicate different levels of moderate activities; (↑↑↑↑) indicates a strong activity; (−) indicates no detectable activity. It is filed as cell-based. As to conditions: for IFN-γ / IL-1β / IL-6 / IL-10 / IL-12p40 / IP10 / TNF-α: human PBMC, 24 hrs. The protocol: PBMC from 3 donors were isolated from Buffy Coat (Blood Center of NY). The cells were washed with PBS and re-suspended in RPMI-1640 Media with 5% Human AB Serum, 1% Pen/Strep and 2 mM L-glutamine. The cells were then plated in 96-well plates at 250,000 cells/well. […] After 24 hrs, the supernatant was harvested and tested for cytokine production using MagPix Multi-Plex Technology. The following cytokines were tested: IL-6, IL-10, IL-12p40, IFN-α, IFN-γ, IP-10, IL-1β and TNF-α.

The test system of data set [3] is canonical NF-κB promoter reporter. Put plainly: Canonical NF-κB promoter reporter construct in RAW264.7 macrophage cells (FIG. 10). The data set is classed as cell-based, mouse. As to conditions: 24 hrs. The protocol:
Mouse RAW264.7 macrophage cells containing a reporter construct driven by a canonical NF-κB promoter were plated in 96-well plates at 50,000 cells/well. […] The supernatant was harvested and tested for optical density.

The test system of a further data set is human purified pDCs. Put plainly: IFN-α secretion from purified human pDCs by ELISA. It is filed as cell-based. The source says: By contrast, ODN2006 induced IFN-α secretion from purified and matured pDCs, and ODN150 and ODN7040 induced IFN-α secretion from matured pDCs.
On the technique in general: In an ELISA, binding on a coated surface is turned into a signal by an enzyme label.

In data set [4] the test system is ulcerative colitis patients. As to conditions: clinical studies, subset of UC patients; cited from earlier work.
[5] abbreviates: PBMC, relative strength, Table 6.

Oligonucleotides are written 5' to 3', each unit as a sugar letter and its base; * is a phosphorothioate linkage, no mark a phosphodiester; rarer units and linkages stand in square brackets, end groups in braces. Plain capitals give the bases only. d = 2'-deoxy (DNA)

As to “ODN150: 5′-G*G*A*ACAGTTCGTCCAT*G*G*C-3′, PO except * = PS; antisense to p65 of NF-kB mRNA; tested clinically for ulcerative colitis (DNA dG*dG*dA*dAdCdAdGdTdTdCdGdTdCdCdAdT*dG*dG*dC)”, the TGF-β1 protein induction entry in the data set with human pDCs [1] is reported as “can induce”. Further, the PD-L1 protein induction result with human pDCs [2] is on record as “can induce”. In the data set with human PBMCs (setting [5]), the “IL-6, IL-12” value was “↑” and the “TNFα, IFNγ” value was “—/↑”. Further, the “IFNα secretion from PBMCs” value in the data set on human PBMCs (any tested concentration between 0.01 μM and 10 μM, FIG. 25) is reported as “not found to induce”. In the data set on human PBMCs (high-dose ODN 10 μM), the IFN-γ was 0.2 pg/mL, the IL-1β was determined as 0.6 pg/mL, the IL-6 is 11.8 fold change and the IL-10 is recorded as 1.6 fold change. Further, in the data set with human PBMCs (high-dose ODN 10 μM), the IL-12p40 worked out at 0 pg/mL, the IP10 is 8.1 fold change and the TNF-α was found to be 2 fold change. For the same substance, in the data set on human PBMCs (low-dose ODN 0.1 μM), the IFN-γ amounted to 0.2 pg/mL, the IL-1β was 0.2 pg/mL, the IL-6 came out at 1.2 fold change and the IL-10 was 0.9 fold change. In the data set on human PBMCs (low-dose ODN 0.1 μM), this substance came in with an IL-12p40 of 0 pg/mL, an IP10 of 1.5 fold change and a TNF-α of 1.2 fold change. Moreover, the “activation of the NF-κB construct” value in data set [3] (0.1-100 μM) was “Moderate activation”. The “ODN concentration at which activation of the NF-κB construct was observed” value in data set [3] turned out to be 100 µM. Further, the “IFN-α secretion from pDCs matured by IL-3 treatment” value in the data set with human purified pDCs (3 μM, 48 hours, ELISA, FIG. 18) is “induced”. Besides, the IFN-α result in the data set with human purified pDCs (pDC, relative strength, Table 6) is reported as “↑ ↑”. In addition, the “clinical effect in ulcerative colitis” value in data set [4] is listed as “some moderate beneficial effects”.

Source of the values: patent publication US20180289692A1, “TLR MODULATORS AND METHODS OF USE” (CELGENE CORPORATION, priority 2015, published 2018).
